Test results as given in patent publication US20250360130A1, “METHODS OF TREATING INDOLENT SYSTEMIC MASTOCYTOSIS” (Telios Pharma Inc., priority 2024, published 2025).

Legend:
BTK = BTK (Homo sapiens, UniProt Q06187); test: Antigen-induced BTK phosphorylation in ISM-like mast cells; format: cell-based; set-up: Human mast cells were differentiated from bone marrow CD34+ cells from six healthy donors; endogenous in cells; host or cells: human mast cells differentiated from bone marrow CD34+ cells of healthy donors, cultured with SCF; settings: ISM-like (+SCF) mast cells, two hours treatment prior to stimulation
Sequence of BTK (Q06187 whole entry): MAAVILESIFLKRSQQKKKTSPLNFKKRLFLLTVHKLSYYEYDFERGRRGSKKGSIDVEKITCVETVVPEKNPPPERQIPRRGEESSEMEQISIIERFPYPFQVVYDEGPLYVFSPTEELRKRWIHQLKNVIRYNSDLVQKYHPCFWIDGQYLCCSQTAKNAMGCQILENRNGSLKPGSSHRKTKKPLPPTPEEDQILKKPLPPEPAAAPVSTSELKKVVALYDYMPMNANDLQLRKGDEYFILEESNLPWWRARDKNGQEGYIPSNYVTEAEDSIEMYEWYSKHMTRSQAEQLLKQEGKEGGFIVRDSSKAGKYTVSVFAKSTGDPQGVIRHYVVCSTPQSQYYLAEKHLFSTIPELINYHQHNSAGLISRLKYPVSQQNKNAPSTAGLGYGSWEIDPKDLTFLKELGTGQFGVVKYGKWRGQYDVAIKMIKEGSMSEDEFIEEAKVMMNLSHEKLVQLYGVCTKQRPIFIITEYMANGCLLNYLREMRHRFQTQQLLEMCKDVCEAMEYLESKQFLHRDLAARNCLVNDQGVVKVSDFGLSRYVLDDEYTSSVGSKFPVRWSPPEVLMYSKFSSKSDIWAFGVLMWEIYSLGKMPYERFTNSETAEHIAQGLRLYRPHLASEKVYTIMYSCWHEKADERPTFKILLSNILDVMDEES
Method: (§1) Human mast cells were derived from bone marrow CD34+ cells from six healthy donors for up to eight weeks by culturing CD34+ cells in StemSpan SFEM II (Stem Cell Technologies) supplemented with stem cell factor (SCF; 100 ng/mL; R&D System), IL-6 (R&D Systems), IL-3 (R&D Systems) and 1% penicillin/streptomycin (P/S; Gibco) for the first 10 days and in StemSpan SFEM II supplemented with SCF and IL-6 and 1% P/S for the remaining time in culture. […] Supernatant was collected and histamine levels were measured using a Histamine ELISA kit (Eagle Biosciences). […] Percent of activated mast cells was calculated as number of activated mast cells over the total number of mast cells.
Human mast cells were differentiated from bone marrow CD34+ cells from six healthy donors, cultured and sensitized as set forth in Example 4. […] The median fluorescence intensity of phosphorylated BTK was measured. CD63 and histamine levels in these cells were measured and percent activated mast cells were calculated as set forth in Example 4. The percent of stimulated control for pBTK, activated mast cells (CD63+) and histamine levels was calculated. […]

human mast cells = test: Antigen-induced cytokine production in ISM-like and healthy mast cells; format: cell-based; settings: two hours treatment, antigen four hours
Method: as §1
Human mast cells were differentiated from bone marrow CD34+ cells from two healthy donors, cultured and sensitized in ISM-like and healthy mast cell conditions as set forth in Example 4, treated with Compound 128 for two hours and stimulated with antigen for four hours. Supernatant was collected and cytokine levels were measured using the BD Cytometric Bead Array (CBA) human soluble protein master buffer kit (Becton Dickinson) and BD CBA human soluble protein flex sets for IL-8, MCP-1, MIP-1a, IL-13 and IL-10 (Becton Dickinson). […]

mast cells = test: Return of degranulation after Compound 128 exposure and washout (FIG. 18); format: cell-based, human; settings: after Compound 128 exposure, flow cytometry
From the text: FIGS. 18A-D show return of degranulation after Compound 128 exposure.

basophils = test: Inhibition of basophil activation (BAT, CD63) in ISM patients; format: in vivo, human
Method: The BAT was conducted as set forth in Santos (2021) Allergy, 76:2420-2432. Blood from six healthy donors was drawn and Compound 128 was added at various concentrations (10 μM, 3.16 μM, 1 μM, 0.3 μM, 0.1 μM, 0.03 μM, or 0 μM). Blood samples were gently rocked at room temperature for 2 hours, 24 hours, or 48 hours. The BAT assay using the Flow Cast Basophil Activation Kit (Buhlmann Diagnostics; Catalog #B-CCR-STCON) was then conducted following manufacturer instructions by (1) stimulating the blood with anti-FcεR stimulation control in stimulation buffer with IL-3 and staining cells for CCR3 and CD63 for 15 minutes at 37° C., (2) lysing red blood cells and fixing cells with Lysing Reagent at room temperature for 10 minutes, (3) washing cells with Wash Buffer, and (4) acquiring data on a flow cytometer. Activated basophils were defined as CCR3+, low side scatter and CD63+. Percent of activated basophils was calculated as number of activated basophils over the total number of basophils. A four-parameter logistic regression was applied to determine the EC50 and EC90. […]
The BAT assay measuring CD63 used the Flow Cast Basophil Activation Kit method and percent activated basophils were calculated as described in Example 1. Percent inhibition of CD63 activation was calculated as (100−(Sample condition−Unstimulated DMSO control)/(Stimulated DMSO control−Unstimulated DMSO control)×100).

C=CC(=O)N1CCC(F)(CNc2ncnc(N)c2-c2ccc(Oc3ccccc3)cc2)CC1 [Compound 128, 1-(4-(((6-amino-5-(4-phenoxyphenyl)pyrimidin-4-yl)amino)methyl)-4-fluoropiperidin-1-yl)prop-2-en-1-one]
IgE-mediated BTK phosphorylation (BTK): potently inhibits | IgE-mediated cytokine production (IL-8, MCP-1, MIP-1a, IL-13, IL-10) (human mast cells): inhibited | time to restoration of degranulation after inhibition (mast cells): ≤ 24 h | inhibition of basophil activation (basophils; 100 mg or 150 mg BID): effective in inhibiting basophil activation | percent inhibition of CD63 activation of basophils, dose dependence (basophils; 50, 75, 100 or 150 mg BID versus placebo): greater inhibition of basophil activation is achieved in ISM patients with greater dosing
